Source: patent US5989844A, “Method for evaluating drug metabolism and reagent compositions therefor” (Pfizer Inc., priority 1997, dated 1999)

Legend:
[1] = biological target: CYP2D6 (Homo sapiens, UniProt P10635); assay: CYP2D6-mediated metabolism: substrate disappearance in PM human liver microsome HHM-0116 supplemented with recombinant CYP2D6-expressing microsome; settings: microsomes, 1 μM substrate, 60 min incubation
Description: a) CYP2D6-mediated metabolism
The pH of the solution was 7.4. The incubation temperature was 37° C. At specific incubation times (0, 5, 10, 30, 60 minutes), an aliquot of 100 μl was withdrawn from the reaction mixture and mixed with 1 ml of ACN containing 5 ng/ml (2S, 3S)-3-(2-methoxybenzylamino)-2-diphenylmethyl-1-azabicyclo[2,2,2] octane as an internal standard. Protein was subsequently precipitated by centrifugation (1,800×g for 10 min). and the resulting supernatant was taken, evaporated and dissolved in 100 μl of 60% ACN. Concentrations of substrates and products in the sample solutions were analyzed with a Sciex API-III mass spectrometer linked with a Hewlett-Packard HP1090 HPLC system. A volume of 10 μl of the sample portion was injected to the HPLC system equipped with a Tosoh ODS-80Ts column manufactured by Tosoh (3.2×15 mm). Mobile phases comprised 80% acetonitrile(ACN) and 10 mM ammonium acetate and the elution was isocratic with a flow rate of 0.2 mlimin. The effluent from the HPLC column was introduced into the atmospheric pressure ionization source via an ion spray interface with splitting the effluent. The ion spray interface was operated at 5000 volt in a positive ion mode. Collision gas (argon) thickness (CGT), curtain gas (N2) and Neblizer gas (air) was 300×10^13 molecules/cm^2, 0.6 liter/minute and 40 PSI, respectively. The Q2 rod offset voltage (R2) was 0-6 V. The compounds were detected by multiple reacting monitoring (MRM) detection in the API-III mass spectrometer. The MS-MS were generally the combination of precursor and product. […] Concentrations of the remaining substrates in each sample solution (%-remaining) were plotted against the desired incubation times (FIG. 1(a), (c), (e), (g), (i), (k)).

[2] = biological target: CYP2C19 (Homo sapiens, UniProt P33261); assay: S-mephenytoin hydroxylation activity; format: biochemical; settings: 100 μM S-(+)-Mephenytoin, pH 7.4, 37 °C
Description: As used herein, "S-mephenytoin hydroxylation activity" means the activity of 4'hydroxylation of S-mephenytoin as measured by HPLC-MS.
The reagent compositions of this invention, PM microsome (i.e., HHM0102), normal human liver microsomes mixture (i.e., HLM mix-A, and HLM mix-B, and (CYP2C19 0.1 mg/ml) were tested for hydroxymephenytoin generation activity which is a known property of microsome obtained from a normal metabolizer.
HHM-0102 microsomes (1.0 mg protein/ml) were mixed with a total of 0.3 mg protein/ml of CYP2C19 microsomes and the control microsomes with various ratios. […] Hydroxy mephenytoin which was generated in samples were analyzed by LC/MS/MS.

Chain of CYP2D6 (P10635 whole entry): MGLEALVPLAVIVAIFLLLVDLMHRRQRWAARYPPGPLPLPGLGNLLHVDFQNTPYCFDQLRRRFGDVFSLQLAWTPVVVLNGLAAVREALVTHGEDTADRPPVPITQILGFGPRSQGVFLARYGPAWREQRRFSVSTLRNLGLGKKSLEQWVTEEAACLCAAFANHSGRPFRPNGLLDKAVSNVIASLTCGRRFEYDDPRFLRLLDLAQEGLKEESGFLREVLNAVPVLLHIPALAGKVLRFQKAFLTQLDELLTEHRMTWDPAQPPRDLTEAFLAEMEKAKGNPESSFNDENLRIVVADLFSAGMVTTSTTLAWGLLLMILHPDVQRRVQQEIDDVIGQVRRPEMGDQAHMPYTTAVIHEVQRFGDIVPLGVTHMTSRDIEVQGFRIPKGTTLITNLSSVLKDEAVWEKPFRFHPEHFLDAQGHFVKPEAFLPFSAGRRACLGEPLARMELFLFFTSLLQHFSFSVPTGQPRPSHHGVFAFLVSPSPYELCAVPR

CC(C)NCC(O)COc1cccc2ccccc12 (centres unmarked) [Propranolol, propranolol]
half-life at 1 µM ([1]; pH 7.4, T1/2, HHM0116 + 0 mg/ml 2D6 (control microsome)): 301 min
half-life at 1 µM ([1]; pH 7.4, T1/2, HHM0116 + 0.1 mg/ml recombinant CYP2D6 microsome): 70.2 min
half-life at 1 µM ([1]; pH 7.4, T1/2, HHM0116 + 0.5 mg/ml recombinant CYP2D6 microsome): 15 min
half-life at 1 µM ([1]; pH 7.4, T1/2, HHM0116 + 1.0 mg/ml recombinant CYP2D6 microsome): 5.4 min

B1: CYP2C19 0.1 mg/ml: CYP2C19 microsomes at 0.1 mg/ml, tested alone (protein, UniProt P33261 1-490, looked up)
Cytochrome P450 2C19: MDPFVVLVLCLSCLLLLSIWRQSSGRGKLPPGPTPLPVIGNILQIDIKDVSKSLTNLSKIYGPVFTLYFGLERMVVLHGYEVVKEALIDLGEEFSGRGHFPLAERANRGFGIVFSNGKRWKEIRRFSLMTLRNFGMGKRSIEDRVQEEARCLVEELRKTKASPCDPTFILGCAPCNVICSIIFQKRFDYKDQQFLNLMEKLNENIRIVSTPWIQICNNFPTIIDYFPGTHNKLLKNLAFMESDILEKVKEHQESMDINNPRDFIDCFLIKMEKEKQNQQSEFTIENLVITAADLLGAGTETTSTTLRYALLLLLKHPEVTAKVQEEIERVIGRNRSPCMQDRGHMPYTDAVVHEVQRYIDLIPTSLPHAVTCDVKFRNYLIPKGTTILTSLTSVLHDNKEFPNPEMFDPRHFLDEGGNFKKSNYFMPFSAGKRICVGEGLARMELFLFLTFILQNFNLKSLIDPKDLDTTPVVNGFASVPPFYQLCFIPV
modifications: microsomes
notes: CYP2C19 microsomes at 0.1 mg/ml, tested alone
S-mephenytoin hydroxylation Activity [2]: 18.110 pmol/min/mg
